Data on 5 molecules can be found in PMC10449633 (Nature Chemical Biology, 2023).

SMILES strings stand for the structures. Several values for one entry are separate records, joined by “and”; a condition that tells them apart may be missing. Equal entries are not always repeated. Where two headings read alike, the source gives them in different places. Numbered stars: 1 amine (or outer) side, 2 acyl side, 3 side chain; on linkers, the order of the positions; unused ones are H or OH. Square brackets hold non-standard residues; d marks the D form. Peptide text beside a SMILES is read from it. NMeTrp(1-(4-Br-benzyl)) = CN[C@@H](Cc1cn(Cc2ccc(Br)cc2)c2ccccc12)C(=O)O; X3 = CCn1cc(C[C@@H](C(=O)[*:2])N(C)[*:1])c2ccccc21; Butanoyl(2R-oxy,4-CN) = N#CCC[C@@H](O)C(=O)O; Abu(4,4,4-F3) = N[C@@H](CC(F)(F)F)C(=O)O; NMeL = CN[C@@H](CC(C)C)C(=O)O; NMeA = CN[C@@H](C)C(=O)O

For assay [1], the system named is SARS-CoV-2. As to conditions: infected 48 h.
Assay [2] relates to SARS-CoV-2. It is filed as cell-based. As to conditions: 48 h.
For assay [3], the system named is SARS-CoV-2. In kind it is cell-based. As to conditions: 48 h. This is another data set of the same source.
In a further assay the target is T1, Sec61 (Homo sapiens, UniProt P61619).
T1 construct: endogenous in cells
The assay can be described thus: cell-based. As to conditions: for IC50: 24 h, range in brackets.

The test system of assay [4] is collagen antibody-induced arthritis in BALB/c mice. As to the kind of experiment: Anticollagen antibody-induced arthritis model, clinical scores. In kind it is in vivo, mouse. The conditions noted are these: individual mice.

T1 sequence (P60059 whole entry): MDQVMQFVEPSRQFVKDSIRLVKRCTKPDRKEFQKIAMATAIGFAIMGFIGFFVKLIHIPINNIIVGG
T1 sequence (P61619 whole entry): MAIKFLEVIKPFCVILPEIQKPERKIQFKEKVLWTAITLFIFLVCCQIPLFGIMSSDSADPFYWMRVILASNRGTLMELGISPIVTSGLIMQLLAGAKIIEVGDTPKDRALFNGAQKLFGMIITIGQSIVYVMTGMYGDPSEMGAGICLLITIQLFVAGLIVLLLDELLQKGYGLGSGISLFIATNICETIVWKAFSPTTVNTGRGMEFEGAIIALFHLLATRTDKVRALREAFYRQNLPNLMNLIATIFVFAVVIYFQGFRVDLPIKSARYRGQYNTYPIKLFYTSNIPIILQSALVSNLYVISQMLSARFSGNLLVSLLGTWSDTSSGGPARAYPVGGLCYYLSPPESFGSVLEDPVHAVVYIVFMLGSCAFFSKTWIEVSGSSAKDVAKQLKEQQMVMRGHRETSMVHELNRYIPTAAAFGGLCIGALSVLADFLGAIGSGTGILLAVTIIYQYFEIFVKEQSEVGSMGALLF
T1 sequence (P60468 whole entry, further chain): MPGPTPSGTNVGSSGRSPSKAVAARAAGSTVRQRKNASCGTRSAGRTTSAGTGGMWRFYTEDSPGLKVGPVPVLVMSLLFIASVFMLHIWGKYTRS

With `CC[C@H]1CN2CCc3cc(OC)c(OC)cc3[C@@H]2C[C@@H]1C[C@H]1NCCc2cc(OC)c(OC)cc21` [Emetine, reference compound], the cell viability with SARS-CoV-2 [1] (0.01 uM) was 70.4141 and 72.6149 and 69.2712; in the assay with SARS-CoV-2 [1] (0.04 uM), 77.6184 and 78.5394 and 67.5514; with SARS-CoV-2 [1] (0.12 uM), 91.8387 and 89.8998 and 85.3326; with SARS-CoV-2 [1] (0.37 uM), 98.5387 and 106.593 and 107.116; in the assay with SARS-CoV-2 [1] (1.11 uM), 85.9306 and 97.0439 and 95.1349; with SARS-CoV-2 [1] (3.33 uM) it was 86.5239 and 91.9706 and 91.8345. In the assay on SARS-CoV-2 [1] (10 uM), the cell viability was 89.2076 and 95.1684 and 93.0072. In addition, the “infectious virus particle production” value in the assay with SARS-CoV-2 [2] (1.11 uM) was 632.456 TCID50 per milliliter; in the assay on SARS-CoV-2 [2] (3.33 uM), 632.456 TCID50 per milliliter and 430.887 TCID50 per milliliter; in the assay on SARS-CoV-2 [2] (10 uM), 632.456 TCID50 per milliliter. In addition, the “viral genome copy number” value was 24100000 and 12600000 and 15400000 in the assay with SARS-CoV-2 [3] (0.01 uM); 19500000 and 12600000 and 14500000 in the assay on SARS-CoV-2 [3] (0.04 uM); 9690000 and 6770000 and 10700000 in the assay with SARS-CoV-2 [3] (0.12 uM); 81000 and 73500 and 71100 in the assay with SARS-CoV-2 [3] (1.11 uM); 85400 and 62200 and 61600 with SARS-CoV-2 [3] (3.33 uM); 58200 and 54400 and 71200 in the assay with SARS-CoV-2 [3] (10 uM).

`CCn1cc(C[C@H]2C(=O)N[C@@H](CC(C)C)C(=O)N(C)[C@@H](C)C(=O)O[C@H](CCC#N)C(=O)N[C@@H](CC(F)(F)F)C(=O)N(C)[C@@H](CC(C)C)C(=O)N[C@@H](CC(F)(F)F)C(=O)N2C)c2ccccc21` [KZR-9508] (cyclo(L[NMeA][Butanoyl(2R-oxy,4-CN)][Abu(4,4,4-F3)][NMeL][Abu(4,4,4-F3)][X3])): the “selectivity compared with KZR-8445” value on Sec61 is reported as “greater selectivity”. Also, the IC50 on Sec61 (HER3 signal peptide-GLuc, read-out: IC50 (nM) HER3) is 103 nM and ~100 nM; at Sec61 (PD1 signal peptide-GLuc, read-out: IC50 (nM) PD1), 388 nM; on Sec61 (full-length IL-2-GLuc, read-out: IC50 (nM) IL-2), 1420 nM; on Sec61 (full-length TNFα-GLuc, read-out: IC50 (nM) TNFα), 908 nM; at Sec61 (prolactin signal peptide-GLuc, read-out: IC50 (nM) Prolactin), 25600 nM. Moreover, the “loss of potency relative to KZR-8445” value on Sec61 (four of five GLuc reporters) was 10–20 fold.

For the molecule `CC(C)C[C@@H]1NC(=O)[C@H](Cc2cn(Cc3ccc(Br)cc3)c3ccccc23)N(C)C(=O)[C@H](CC(F)(F)F)NC(=O)[C@H](CC(C)C)N(C)C(=O)[C@H](CC(F)(F)F)NC(=O)[C@@H](CCC#N)OC(=O)[C@H](C)N(C)C1=O` [KZR-508445] (cyclo(L[NMeA][Butanoyl(2R-oxy,4-CN)][Abu(4,4,4-F3)][NMeL][Abu(4,4,4-F3)][NMeTrp(1-(4-Br-benzyl))])), the Clinical score in assay [4] (2.5 mg/kg IV QODx3, day 13) was 9 (2×) and 6 and 11 (2×) and 4 and 12 and 8 and 13 and 7; in assay [4] (2.5 mg/kg IV QODx3, day 14), 9 (2×) and 5 and 11 (2×) and 2 and 12 and 10 and 13 and 7; in assay [4] (5 mg/kg IV QODx3, day 13) it was 11 (2×) and 5 and 10 and 4 (3×) and 8 and 7 and 9; in assay [4] (5 mg/kg IV QODx3, day 14), 12 and 5 and 8 (2×) and 4 (2×) and 3 and 6 and 9 and 11; in assay [4] (10 mg/kg IV QODx3, day 13) it was 4 and 6 (3×) and 9 (2×) and 5 (2×) and 3 and 7; in assay [4] (10 mg/kg IV QODx3, day 14), 5 (3×) and 7 (2×) and 9 and 6 and 8 (2×) and 3. Also, the Clinical score in assay [4] (20 mg/kg IV QODx3, day 4) is 1 (4×) and 2 (2×); in assay [4] (20 mg/kg IV QODx3, day 13) it was 1 (2×) and 3 (2×) and 2 and 0 and 4; in assay [4] (20 mg/kg IV QODx3, day 14), 1 (2×) and 3 (3×) and 2 and 0; in assay [4] (20 mg/kg IV QW, day 13), 0 and 2 and 9 and 6 (2×) and 7 (2×) and 8 (2×) and 4; in assay [4] (20 mg/kg IV QW, day 14), 0 and 2 and 9 (2×) and 7 (2×) and 6 and 8 (2×) and 5.

As for `CCn1cc(C[C@H]2C(=O)N[C@@H](CC(C)C)C(=O)N(C)[C@@H](C)C(=O)O[C@H](CCC#N)C(=O)N[C@@H](CC(F)(F)F)C(=O)N(C)[C@@H](CC(C)C)C(=O)N[C@@H](CC(F)(F)F)C(=O)N2C)c2ccccc21` [KZR-0509508] (cyclo(L[NMeA][Butanoyl(2R-oxy,4-CN)][Abu(4,4,4-F3)][NMeL][Abu(4,4,4-F3)][X3])), the “GLuc reporter raw signal (replicates)” value is 2917200 and 2920600 and 2895100 on Sec61 (HER3, Concentration 0.32); 2324600 and 2421500 and 2482600 at Sec61 (HER3, Concentration 40); 860870 and 901980 and 850270 at Sec61 (HER3, Concentration 200); 128950 and 127590 and 122180 on Sec61 (HER3, Concentration 1000); 21107 and 19954 and 21458 on Sec61 (HER3, Concentration 5000); 18661 and 19673 and 20195 at Sec61 (HER3, Concentration 25000). Moreover, the “GLuc reporter raw signal (replicates)” value at Sec61 (IL2, Concentration 0.32) is 2617800 and 2680800 and 2713900; on Sec61 (IL2, Concentration 8) it was 2560100 and 2737500 and 2592900; at Sec61 (IL2, Concentration 40), 2448500 and 2433000 and 2516300; on Sec61 (IL2, Concentration 200) it was 2434300 and 2250900 and 2386200; on Sec61 (IL2, Concentration 1000), 1366100 and 1331100 and 1340300; on Sec61 (IL2, Concentration 5000), 148660 and 137160 and 137620. Moreover, the “GLuc reporter raw signal (replicates)” value on Sec61 (IL2, Concentration 25000) was 72344 and 71940 and 72808; at Sec61 (PD1, Concentration 0.32), 1140200 and 1151600 and 1079300; at Sec61 (PD1, Concentration 8), 1090400 and 1094000 and 1069700; at Sec61 (PD1, Concentration 40), 1001600 and 1054300 and 960410; on Sec61 (PD1, Concentration 200) it was 810270 and 826880 and 727000; on Sec61 (PD1, Concentration 1000), 298160 and 288700 and 294700. In addition, the “GLuc reporter raw signal (replicates)” value at Sec61 (PD1, Concentration 5000) was 19269 and 21595 and 21074; on Sec61 (PD1, Concentration 25000), 12135 and 12576 and 11044; on Sec61 (Prolactin, Concentration 0.32), 8343700 and 8651000 and 8237500; on Sec61 (Prolactin, Concentration 8) it was 8140000 and 8910000 and 8852700; at Sec61 (Prolactin, Concentration 40), 8482300 and 8946000 and 7991900; at Sec61 (Prolactin, Concentration 200) it was 8151300 and 9013100 and 8191700. Moreover, the “GLuc reporter raw signal (replicates)” value at Sec61 (Prolactin, Concentration 1000) was 7614900 and 8029100 and 7622300; on Sec61 (Prolactin, Concentration 5000), 6257700 and 6043200 and 6299800; on Sec61 (Prolactin, Concentration 25000) it was 4760600 and 4742900 and 4623400; on Sec61 (TNFa, Concentration 0.32) it was 157540 and 153990 and 156290; at Sec61 (TNFa, Concentration 8) it was 177590; on Sec61 (TNFa, Concentration 40), 174140 and 177930 and 180980. In addition, the “GLuc reporter raw signal (replicates)” value was 165100 and 188550 and 172890 at Sec61 (TNFa, Concentration 200); 101080 and 103620 and 107580 on Sec61 (TNFa, Concentration 1000); 30162 and 28185 and 30634 on Sec61 (TNFa, Concentration 5000); 17845 and 17474 and 16301 at Sec61 (TNFa, Concentration 25000).

In the case of `C[C@@H]1C[C@H]2[C@@H]3CCC4=CC(=O)C=C[C@]4(C)[C@@]3(F)[C@@H](O)C[C@]2(C)[C@@]1(O)C(=O)CO` [dexamethasone, reference compound], the Clinical score in assay [4] (1.5mg/kg IP QODx3, day 4) is 1 (5×) and 2 (4×) and 3; in assay [4] (1.5mg/kg IP QODx3, day 5), 3 (5×) and 4 (2×) and 2 and 5 (2×); in assay [4] (1.5mg/kg IP QODx3, day 6) it was 4 (2×) and 6 (6×) and 2 and 5; in assay [4] (1.5mg/kg IP QODx3, day 7), 6 (4×) and 4 and 7 (3×) and 5 and 8; in assay [4] (1.5mg/kg IP QODx3, day 10) it was 6 (3×) and 7 (2×) and 9 (2×) and 5 and 11 and 8; in assay [4] (1.5mg/kg IP QODx3, day 11) it was 7 (3×) and 6 (2×) and 8 (2×) and 4 and 9 and 10. Besides, the Clinical score was 7 (4×) and 6 (2×) and 9 (3×) and 3 in assay [4] (1.5mg/kg IP QODx3, day 12); 7 (3×) and 5 and 6 (2×) and 8 (2×) and 3 and 9 in assay [4] (1.5mg/kg IP QODx3, day 13); 6 (2×) and 5 and 8 (2×) and 7 (2×) and 3 and 10 and 9 in assay [4] (1.5mg/kg IP QODx3, day 14).

The term IC50 denotes the concentration at which inhibition is half-maximal.
